Data published in patent US9745299B2, “Substituted tricyclic benzimidazoles as kinase inhibitors” (SELVITA SA, priority 2012, dated 2017).
Where a name gives a salt, the structure may show the parent alone.

Columns and labels:
HCT116 cells [1] = experiment: Matrigel Invasion Chambers, HCT116 invasion; assay type: cell-based, human; settings: increasing concentrations, 22 h, 10% FBS chemoattractant
Protocol: Matrigel Invasion Chambers [catalog number 354480 (BD Biosciences)] are useful to study cell invasion of malignant and normal cells. Matrigel Invasion Chambers can be used to study the mechanisms of invasion and to identify factors that interfere with this process in an in vitro environment. According to standard assays known to the skilled person, 5×10^4 HCT116 cells/ml were added in each case to the upper chamber of the Matrigel Invasion Chambers in the presence of increasing concentrations of “Example 1K”, whereas chemoatractant comprising 10% FBS was added to the lower chamber. The Invasion Chambers were incubated for 22 h in a humidified tissue culture incubator at 37° C., 5% CO2. Non-invading cells were removed by scrubing. The cells on the lower surface of the membrane were then stained with Diff-Quik™ stain. The results shown in FIG. 4 indicate that strong and selective CDK8 inhibitors as the “Example 1K” compound appear to be capable of repressing invasiveness of HCT116 colon cancer cells.

HCT116 tumor = experiment: HCT116 xenograft tumor growth in NOD/SCID mice; assay type: in vivo; settings: oral administration, 30 mg/kg
Protocol: The substituted Tricyclic Benzimidazoles of the present invention are useful as anti-cancer agents due to their ability to reduce tumor growth in vivo in mammals. Various well-accepted animal models exist for cancer. By way of example, antitumor activity can be evaluated in vivo in murine xenograft models. Briefly, female mice, NOD/SCID, 5-6 weeks old, were used for the study. On the 1st experimental day, 5*10^6 HCT116 cells were suspended in 0.1 ml 0.9% NaCl+Matrigel® (BD Biosciences) (1:1, v:v) and were injected subcutaneously, on the right side just above the groin. As the tumor growth was progressing, the tumor size was measured every day, and the tumor volume was computed from the formula: TV=(a*a*b)/2 in mm3, where a is the short axis in mm, and b is the long axis in mm. When the average tumor volume reached and exceeded 100 mm3, mice were randomized into uniform groups and subjected to the compound administrations. The administration of the compound was performed and continued according to the experimental schedule.
The tumor volume was monitored throughout the study and the tumor growth inhibition (TGI) was computed using the following formula: TGI [%]=((Av Norm TGC−Av Norm TGT)/Av Norm TGC)×100, where Av Norm TGC is the mean (average) normalized tumor growth of the control group, and Av Norm TGT is the mean (average) normalized tumor growth of the treated group. […]

HepG2 hepatocarcinoma = experiment: Cytotoxic effects, HepG2; assay type: cell-based, human
TNFalpha = experiment: LPS assay, TNFα ELISA in RAW 264.7; assay type: cell-based, mouse; settings: RAW 264.7, 4 h pre-incubation, LPS 1 μg/ml for 6 h
Text: (§1) The LPS assay was used to evaluate ability to respond to an inflammatory stimulus by mounting an acute phase response. The acute phase response is characterized by a dramatic increase in the production of a group of proteins by the liver. Bacterial LPS is an endotoxin, a potent inducer of the acute phase response and systemic inflammation. This response is induced by the production of TNFα, IL-1β, and IL-6 from activated monocytes and neutrophils in response to inflammatory stimuli. Evaluation of the three pro-inflammatory cytokines, TNFα, IL-1β, and IL-6, is the current standard method for evaluation of the ability of the immune system to mount an innate inflammatory immune response. In each case, and by methods known to those practiced in the art, RAW 264.7 Mouse leukaemic monocyte macrophage cells were plated at the density of 40 000 cells per well. Next day, cells were pre-incubated with tested compounds (fconc=10 μM) for 4 h and then stimulated with LPS (fconc=1 μg/ml) for 6 h. In the cell culture media IL-6 and TNFα levels were examined by ELISA using BD OptEIA™ Mouse IL-6 ELISA Set Cat. No 555240 and BD OptEIA™ Mouse TNFα ELISA Set Cat. No 555268 (BD Biosciences Pharmingen, SanDiego, Calif., USA), according to manufacturer's instructions.

IL6 = experiment: LPS assay, IL-6 ELISA in RAW 264.7; assay type: cell-based, mouse; settings: RAW 264.7, 4 h pre-incubation, LPS 1 μg/ml for 6 h
Text: as §1

HCT116 cells [2] = experiment: Combination with Oxaliplatin, MTS cell viability assay, Chou-Thalay method; assay type: cell-based, human
Text: Various well-accepted models exist for determination of synergistic and additive effect for two or more drugs in combination. As a matter of example combination index CI can be used as a quantitative measure of the degree of drug interaction in terms of synergism, additive effects and antagonism for a given endpoint of the measurement:
Synergism (C<1) greater than expected additive effect
Additive effect (CI=1) the combined effect predicted by the mass-action law principle in the absence of synergism or antagonism
Antagonism (CI>1) Smaller than expected additive effect
In the present example, the drug interactions between compound “Example 6” and Oxaliplatin which is a platinum-based type of anticancer chemotherapy medicine used to treat colorectal cancer were tested in HCT116 cells. Experimental data points in the MTS cell viability assay were spread for Oxaliplatin below and above the ED50 values in HCT116 cells, whereas concentration of the tested compounds was close to the apparent ED50. Chou-Thalay method for quantification of synergy was applied [Chou et al. Cancer Res. 15; 70(2):440-6, (2010)].

| SMILES | invasiveness of HCT116 cells (FIG. 4) (HCT116 cells [1]) | HCT116 tumor growth (FIG. 1) (HCT116 tumor) | cytotoxic effects (HepG2 hepatocarcinoma) | LPS-induced TNFalpha production (FIG. 3) (TNFalpha) | LPS-induced IL6 production (FIG. 3) (IL6) | Combination Index (CI) (HCT116 cells [2]; Example 6 0.6 μM + Oxaliplatin 0.0010 μM) | Combination Index (CI) (HCT116 cells [2]; Example 6 0.6 μM + Oxaliplatin 0.01 μM) | Combination Index (CI) (HCT116 cells [2]; Example 6 0.6 μM + Oxaliplatin 0.1 μM) | Combination Index (CI) (HCT116 cells [2]; Example 6 0.6 μM + Oxaliplatin 1.0 μM) | Combination Index (CI) (HCT116 cells [2]; Example 6 0.6 μM + Oxaliplatin 2.5 μM) | Combination Index (CI) (HCT116 cells [2]; Example 6 0.6 μM + Oxaliplatin 5.0 μM) |
| --- | --- | --- | --- | --- | --- | --- | --- | --- | --- | --- | --- |
| Cc1c(Br)c(Br)c2c3c1nc(N1CCNCC1)n3CCC2 [Example 1K] | Repression of the invasiveness | Inhibition of HCT116 tumor growth | showed cytotoxic effects | – | – | – | – | – | – | – | – |
| Brc1c(Br)c2c3c(nc(N4CCNCC4)n3CCC2)c1Br [Example 6, 7,8,9-tribromo-2-(piperazin-1-yl)-5,6-dihydro-4H-imidazo[4,5,1-ij]quinoline maleate] | – | Inhibition of HCT116 tumor growth | showed cytotoxic effects | dose dependent reduction | dose dependent reduction | 1.15 | 0.99 | 1.11 | 0.69 | 0.38 | 0.29 |
